Experimental data reported in patent US20080015386A1, “Crystal of L-Ornithine-Citric Acid Salt” (KYOWA HAKKO KOGYO CO., LTD., priority 2004, published 2008).

Conditions: 25° C., relative humidity 75%, weight change measured until day 7; numerical values only in FIG. 1
Experimental: A saturated aqueous solution of sodium chloride (approximately 200 mL) was allowed to stand in a plastic desiccator at 25° C. for 24 hours (relative humidity was adjusted to 75%). […] The weighing vessel was allowed to stand in the desiccator with the humidity adjusted, and the weight change of the weighing vessel was measured over the course of time.
The hygroscopicity (hygroscopic degree) was calculated using the following formula (1) on the basis of the weight change at each measuring time. The measurement of the weight change of the weighing vessel was continued until day 7.
Hygroscopic rate (%)=W3−W2/W2−W1×100 (1)
W1=Weight (g) of a weighing vessel
W2=Weight (g) of a weighing vessel filled with crystals before the test
W3=Weight (g) of a weighing vessel filled with crystals after the test

SMILES: NCCC[C@H](N)C(=O)O.NCCC[C@H](N)C(=O)O.O=C(O)CC(O)(CC(=O)O)C(=O)O [Example 1, L-ornithine-½ citric acid salt]
- Hygroscopicity (hygroscopic rate): did not show notable hygroscopicity
